The source made the active and inactive calls. No cut-off for these calls is given here.
What was measured:
HL-60 [1] = assay: Cell cycle arrest in human HL60 cells assessed as accumulation at G2/M phase at 25 uM after 48 hrs by propidium iodide staining-based flow cytometry (reference value: 18.4 +/- 1.3%); type: functional
HL-60 [2] = assay: Cell cycle arrest in human HL60 cells assessed as accumulation at S phase at 1 uM after 48 hrs by propidium iodide staining-based flow cytometry (reference value: 21.5 +/- 1.0%); type: functional
HL-60 [3] = assay: Cell cycle arrest in human HL60 cells assessed as accumulation at G2/M phase at 10 uM after 72 hrs by propidium iodide staining-based flow cytometry (reference value: 14.8 +/- 0.7%); type: functional
[4] = biological target: Serine/threonine-protein kinase B-raf (Homo sapiens) (UniProt P15056); assay: Competitive binding to B-RAF kinase (unknown origin) at 100 nM to 100 uM after 60 to 120 mins by FRET analysis
HL-60 [5] = assay: Cell cycle arrest in human HL60 cells assessed as accumulation at pre-G1 phase at 10 uM after 72 hrs by propidium iodide staining-based flow cytometry (reference value: 0.14%); type: functional
[6] = biological target: Casein kinase I isoform delta (Homo sapiens, UniProt P48730); assay: Inhibition of human recombinant casein kinase-1 delta using casein as substrate after 60 mins by kinase-glo luminescence assay
HL-60 [7] = assay: Cell cycle arrest in human HL60 cells assessed as accumulation at G0/G1 phase at 50 uM after 72 hrs by propidium iodide staining-based flow cytometry (reference value: 65.7 +/- 0.1%); type: functional
HL-60 [8] = assay: Cell cycle arrest in human HL60 cells assessed as accumulation at G0/G1 phase at 10 uM after 48 hrs by propidium iodide staining-based flow cytometry (reference value: 57.0 +/- 1.0%); type: functional
HL-60 [9] = assay: Cell cycle arrest in human HL60 cells assessed as accumulation at pre-G1 phase at 1 uM after 48 hrs by propidium iodide staining-based flow cytometry (reference value: 0.17%); type: functional
HL-60 [10] = assay: Cell cycle arrest in human HL60 cells assessed as accumulation at G2/M phase at 10 uM after 48 hrs by propidium iodide staining-based flow cytometry (reference value: 18.4 +/- 1.3%); type: functional
HL-60 [11] = assay: Cell cycle arrest in human HL60 cells assessed as accumulation at S phase at 25 uM after 72 hrs by propidium iodide staining-based flow cytometry (reference value: 16.4 +/- 0.8%); type: functional
HL-60 [12] = assay: Cell cycle arrest in human HL60 cells assessed as accumulation at G0/G1 phase at 25 uM after 48 hrs by propidium iodide staining-based flow cytometry (reference value: 57.0 +/- 1.0%); type: functional
HL-60 [13] = assay: Cell cycle arrest in human HL60 cells assessed as accumulation at G0/G1 phase at 10 uM after 72 hrs by propidium iodide staining-based flow cytometry (reference value: 65.7 +/- 0.1%); type: functional
HL-60 [14] = assay: Induction of apoptosis in human HL60 cells assessed as cell shrinkage at 50 uM after 72 hrs by microscopy relative to vehicle-treated control; type: functional, cell-based
[15] = biological target: Glycogen synthase kinase-3 beta (Homo sapiens, UniProt P49841); assay: Inhibition of human recombinant GSK-3 beta after 30 mins by luminescence assay
HL-60 [16] = assay: Cell cycle arrest in human HL60 cells assessed as accumulation at pre-G1 phase at 25 uM after 48 hrs by propidium iodide staining-based flow cytometry (reference value: 0.17%); type: functional
HL-60 [17] = assay: Cell cycle arrest in human HL60 cells assessed as accumulation at Gn phase at 25 uM after 48 hrs by propidium iodide staining-based flow cytometry (reference value: 2.49 +/- 0.4%); type: functional
HL-60 [18] = assay: Induction of apoptosis in human HL60 cells assessed as cell membrane blebbing at 50 uM after 72 hrs by microscopy relative to vehicle-treated control; type: functional, cell-based
HL-60 [19] = assay: Cell cycle arrest in human HL60 cells assessed as accumulation at G0/G1 phase at 25 uM after 72 hrs by propidium iodide staining-based flow cytometry (reference value: 65.7 +/- 0.1%); type: functional
HL-60 [20] = assay: Cell cycle arrest in human HL60 cells assessed as accumulation at G2/M phase at 50 uM after 72 hrs by propidium iodide staining-based flow cytometry (reference value: 14.8 +/- 0.7%); type: functional
HL-60 [21] = assay: Cell cycle arrest in human HL60 cells assessed as accumulation at G2/M phase at 1 uM after 72 hrs by propidium iodide staining-based flow cytometry (reference value: 14.8 +/- 0.7%); type: functional
HL-60 [22] = assay: Cell cycle arrest in human HL60 cells assessed as accumulation at Gn phase at 10 uM after 48 hrs by propidium iodide staining-based flow cytometry (reference value: 2.49 +/- 0.4%); type: functional
HL-60 [23] = assay: Cytotoxicity against human HL60 cells after 72 hrs by Alamar Blue assay; type: functional, cell-based; conditions: HL-60, 72 h
HL-60 [24] = assay: Cell cycle arrest in human HL60 cells assessed as accumulation at Gn phase at 50 uM after 48 hrs by propidium iodide staining-based flow cytometry (reference value: 2.49 +/- 0.4%); type: functional
HL-60 [25] = assay: Cell cycle arrest in human HL60 cells assessed as accumulation at Gn phase at 1 uM after 48 hrs by propidium iodide staining-based flow cytometry (reference value: 2.49 +/- 0.4%); type: functional
HL-60 [26] = assay: Cell cycle arrest in human HL60 cells assessed as accumulation at G0/G1 phase at 1 uM after 48 hrs by propidium iodide staining-based flow cytometry (reference value: 57.0 +/- 1.0%); type: functional
HL-60 [27] = assay: Cell cycle arrest in human HL60 cells assessed as accumulation at S phase at 1 uM after 72 hrs by propidium iodide staining-based flow cytometry (reference value: 16.4 +/- 0.8%); type: functional
HL-60 [28] = assay: Cell cycle arrest in human HL60 cells assessed as accumulation at G0/G1 phase at 50 uM after 48 hrs by propidium iodide staining-based flow cytometry (reference value: 57.0 +/- 1.0%); type: functional
HL-60 [29] = assay: Cell cycle arrest in human HL60 cells assessed as accumulation at pre-G1 phase at 25 uM after 72 hrs by propidium iodide staining-based flow cytometry (reference value: 0.14%); type: functional
HL-60 [30] = assay: Cell cycle arrest in human HL60 cells assessed as accumulation at G2/M phase at 50 uM after 48 hrs by propidium iodide staining-based flow cytometry (reference value: 18.4 +/- 1.3%); type: functional
HL-60 [31] = assay: Cell cycle arrest in human HL60 cells assessed as accumulation at pre-G1 phase at 1 uM after 72 hrs by propidium iodide staining-based flow cytometry (reference value: 0.14%); type: functional
HL-60 [32] = assay: Cell cycle arrest in human HL60 cells assessed as accumulation at S phase at 25 uM after 48 hrs by propidium iodide staining-based flow cytometry (reference value: 21.5 +/- 1.0%); type: functional
HL-60 [33] = assay: Cell cycle arrest in human HL60 cells assessed as accumulation at pre-G1 phase at 10 uM after 48 hrs by propidium iodide staining-based flow cytometry (reference value: 0.17%); type: functional
HL-60 [34] = assay: Cell cycle arrest in human HL60 cells assessed as accumulation at G2/M phase at 1 uM after 48 hrs by propidium iodide staining-based flow cytometry (reference value: 18.4 +/- 1.3%); type: functional
HL-60 [35] = assay: Cell cycle arrest in human HL60 cells assessed as accumulation at G2/M phase at 25 uM after 72 hrs by propidium iodide staining-based flow cytometry (reference value: 14.8 +/- 0.7%); type: functional

Sequence of Casein kinase I isoform delta (P48730 whole entry, canonical isoform): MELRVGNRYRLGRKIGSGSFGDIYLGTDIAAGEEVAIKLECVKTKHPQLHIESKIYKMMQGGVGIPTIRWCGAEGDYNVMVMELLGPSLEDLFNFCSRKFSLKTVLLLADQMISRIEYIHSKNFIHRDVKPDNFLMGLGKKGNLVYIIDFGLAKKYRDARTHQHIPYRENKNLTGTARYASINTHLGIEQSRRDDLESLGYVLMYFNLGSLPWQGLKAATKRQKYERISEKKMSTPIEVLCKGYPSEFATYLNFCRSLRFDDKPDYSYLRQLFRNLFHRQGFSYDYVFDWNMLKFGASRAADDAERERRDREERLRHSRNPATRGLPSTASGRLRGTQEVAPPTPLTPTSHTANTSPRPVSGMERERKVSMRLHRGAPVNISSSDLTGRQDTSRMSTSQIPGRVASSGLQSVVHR
Sequence of Glycogen synthase kinase-3 beta (P49841 whole entry): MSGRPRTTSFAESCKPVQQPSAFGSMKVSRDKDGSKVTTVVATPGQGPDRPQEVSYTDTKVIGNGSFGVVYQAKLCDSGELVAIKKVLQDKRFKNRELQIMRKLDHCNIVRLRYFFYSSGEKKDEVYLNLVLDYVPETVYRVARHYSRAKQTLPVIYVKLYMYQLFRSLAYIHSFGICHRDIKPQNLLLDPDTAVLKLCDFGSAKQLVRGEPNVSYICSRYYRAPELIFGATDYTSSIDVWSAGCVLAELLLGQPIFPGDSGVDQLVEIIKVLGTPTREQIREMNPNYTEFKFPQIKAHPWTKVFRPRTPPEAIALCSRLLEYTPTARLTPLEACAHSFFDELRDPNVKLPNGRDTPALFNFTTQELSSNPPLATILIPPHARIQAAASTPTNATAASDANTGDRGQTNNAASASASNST
Sequence of Serine/threonine-protein kinase B-raf (Homo sapiens) (P15056 whole entry): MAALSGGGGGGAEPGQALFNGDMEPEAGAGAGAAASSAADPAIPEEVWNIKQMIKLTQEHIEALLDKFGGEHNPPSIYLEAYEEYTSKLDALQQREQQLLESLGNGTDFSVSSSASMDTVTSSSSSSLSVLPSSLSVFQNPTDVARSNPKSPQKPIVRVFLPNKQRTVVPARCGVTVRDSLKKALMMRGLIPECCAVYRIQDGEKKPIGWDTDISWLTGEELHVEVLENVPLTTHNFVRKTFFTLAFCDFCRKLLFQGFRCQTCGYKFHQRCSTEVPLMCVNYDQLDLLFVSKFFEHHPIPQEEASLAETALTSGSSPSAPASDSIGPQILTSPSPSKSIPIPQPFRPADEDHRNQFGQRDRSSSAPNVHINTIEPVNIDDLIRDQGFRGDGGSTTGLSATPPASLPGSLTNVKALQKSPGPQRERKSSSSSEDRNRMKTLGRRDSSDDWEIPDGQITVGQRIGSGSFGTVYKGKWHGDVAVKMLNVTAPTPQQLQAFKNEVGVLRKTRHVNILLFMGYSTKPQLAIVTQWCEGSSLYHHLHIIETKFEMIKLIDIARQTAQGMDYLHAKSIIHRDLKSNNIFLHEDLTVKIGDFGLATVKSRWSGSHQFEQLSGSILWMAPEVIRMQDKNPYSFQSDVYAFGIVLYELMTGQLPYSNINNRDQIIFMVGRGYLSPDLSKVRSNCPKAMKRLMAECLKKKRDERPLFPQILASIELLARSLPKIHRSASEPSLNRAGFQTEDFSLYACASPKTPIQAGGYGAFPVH

**Q.** With Cl.N=C(N)Nc1ccc(Oc2cccc(NC(=N)Nc3ccc(Cl)c(C(F)(F)F)c3)c2)cc1 as the molecule, how does the Activity (HL-60 [1]) read?
**A.** Its Activity is 20.2%.

**Q.** And the Activity (HL-60 [2])?
**A.** The Activity was 20.6%.

**Q.** And the Activity (HL-60 [3])?
**A.** The Activity was 18.9%.

**Q.** What about the Activity [4] of the same molecule?
**A.** Its Activity is “inactive”.

**Q.** And the Activity (HL-60 [5])?
**A.** The Activity was 0.23%.

**Q.** And the IC50 [6]?
**A.** The IC50 was greater than 100 µM.

**Q.** What about the Activity (HL-60 [7]) of the same molecule?
**A.** Its Activity is 43.7%.

**Q.** What about the Activity (HL-60 [8]) of the same molecule?
**A.** The Activity was 68.9%.

**Q.** And the Activity (HL-60 [9])?
**A.** Its Activity is 0.13%.

**Q.** And the Activity (HL-60 [10])?
**A.** The Activity was 14.6%.

**Q.** And the Activity (HL-60 [11])?
**A.** Its Activity is 4.19%.

**Q.** What about the Activity (HL-60 [12]) of the same molecule?
**A.** The Activity was 69.2%.

**Q.** And the Activity (HL-60 [13])?
**A.** The Activity was 61.3%.

**Q.** What about the Activity (HL-60 [14]) of the same molecule?
**A.** The Activity was “Active”.

**Q.** And the IC50 [15]?
**A.** The IC50 was greater than 100 µM.

**Q.** What about the Activity (HL-60 [16]) of the same molecule?
**A.** The Activity was 1.75%.

**Q.** What about the Activity (HL-60 [17]) of the same molecule?
**A.** Its Activity is 2.17%.

**Q.** And the Activity (HL-60 [18])?
**A.** The Activity was “Active”.

**Q.** And the Activity (HL-60 [19])?
**A.** Its Activity is 73.4%.

**Q.** What about the Activity (HL-60 [20]) of the same molecule?
**A.** Its Activity is 13.6%.

**Q.** What about the Activity (HL-60 [21]) of the same molecule?
**A.** The Activity was 16.7%.

**Q.** What about the Activity (HL-60 [22]) of the same molecule?
**A.** The Activity was 2.17%.

**Q.** And the IC50 (HL-60 [23])?
**A.** Its IC50 is 9.72 µM.

**Q.** What about the Activity (HL-60 [24]) of the same molecule?
**A.** Its Activity is 3.14%.

**Q.** And the Activity (HL-60 [25])?
**A.** Its Activity is 2.17%.

**Q.** What about the Activity (HL-60 [26]) of the same molecule?
**A.** Its Activity is 56.6%.

**Q.** And the Activity (HL-60 [27])?
**A.** Its Activity is 17.1%.

**Q.** And the Activity (HL-60 [28])?
**A.** The Activity was 44.6%.

**Q.** And the Activity (HL-60 [29])?
**A.** The Activity was 2.22%.

**Q.** What about the Activity (HL-60 [30]) of the same molecule?
**A.** Its Activity is 18.6%.

**Q.** And the Activity (HL-60 [31])?
**A.** The Activity was 0.13%.

**Q.** What about the Activity (HL-60 [32]) of the same molecule?
**A.** The Activity was 7.15%.

**Q.** And the Activity (HL-60 [33])?
**A.** The Activity was 0.32%.

**Q.** What about the Activity (HL-60 [34]) of the same molecule?
**A.** Its Activity is 20.4%.

**Q.** What about the Activity (HL-60 [35]) of the same molecule?
**A.** The Activity was 12.9%.

— ChEMBL document CHEMBL3286227, “Guanidinium-based derivatives: searching for new kinase inhibitors” (Eur J Med Chem, 2014)
